Measured values taken from US20260070945A1, “MACROCYCLIC IMMUNOMODULATORS” (Bristol-Myers Squibb Company, priority 2022, published 2026).
pIC50: −log10 of the molar value. *1 amine or outer side, *2 acyl side, *3 side chain or, on linkers, in order; H or OH if unused. Where a SMILES comes first, the peptide text is derived from it. Bridges are numbered along the chain shown (N, C = ends). [ ]: non-standard residue; d: D form. The star is where a group is joined. ξ: configuration not given here. Phe(3-CF3) = N[C@@H](Cc1cccc(C(F)(F)F)c1)C(=O)O; Ala(morpholin-4-yl) = N[C@@H](CN1CCOCC1)C(=O)O; Phe(4-COOH) = N[C@@H](Cc1ccc(C(=O)O)cc1)C(=O)O; Bip = N[C@@H](Cc1ccc(-c2ccccc2)cc1)C(=O)O; Phe(3-Me) = Cc1cccc(C[C@H](N)C(=O)O)c1; γGlu = O=C(O)[C@H](CCC(=O)[*:2])N[*:1]; NH(CH2)12COOH = O=C(O)CCCCCCCCCCCCN*; Val(3-OH) = CC(C)(O)[C@H](N)C(=O)O; 3Pal = N[C@@H](Cc1cccnc1)C(=O)O; 4Pal = N[C@@H](Cc1ccncc1)C(=O)O; Cha = N[C@@H](CC1CCCCC1)C(=O)O; Ile(3ξ) = CCC(C)[C@H](N)C(=O)O; Thr(3ξ) = CC(O)[C@H](N)C(=O)O; Carboxymethyl = O=C(O)C*; NMeA = CN[C@@H](C)C(=O)O; Orn = NCCC[C@H](N)C(=O)O; dDap = NC[C@@H](N)C(=O)O; Aun = NCCCCCCCCCCC(=O)O; Dab = NCC[C@H](N)C(=O)O; Nva = CCC[C@H](N)C(=O)O; AEEA = NCCOCCOCC(=O)O; Sar = CNCC(=O)O

Target: T1, PD-1/PD-L1 interaction (PE-labeled human PD-L1-Ig binding to Jurkat cell line over-expressing human PD-1) (Homo sapiens, UniProt Q15116)
T1 construct: expressed in transfected cells; host or cells: Jurkat
Test: Jurkat-PD-1 Cell Binding High-Content Screening Assay (CBA)
Details: Jurkat-hPD-1 cells, PE-labeled PD-L1-Ig 20 nM final; read-out: Jurkat HPD1 PDL1 IC50
How it was run: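 Jurkat-hPD-1 cells (8×10^3/well) in DMEM with 10% fetal calf serum were preincubated with compound for 2 h at 37 °C. PE-labeled PD-L1-Ig was then added at 20 nM final for 1 h. Cells were fixed in paraformaldehyde with Hoechst 33342, washed and imaged by high-content imaging.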

T1 sequence (Q15116 25-288): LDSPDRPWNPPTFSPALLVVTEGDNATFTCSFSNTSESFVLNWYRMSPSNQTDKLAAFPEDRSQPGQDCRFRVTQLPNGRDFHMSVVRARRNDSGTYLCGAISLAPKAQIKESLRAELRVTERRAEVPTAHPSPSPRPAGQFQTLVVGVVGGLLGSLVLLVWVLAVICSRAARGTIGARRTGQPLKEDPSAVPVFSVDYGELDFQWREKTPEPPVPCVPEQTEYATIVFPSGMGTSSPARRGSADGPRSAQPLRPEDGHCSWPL

pIC50 | SMILES
8.24 | CC(=O)NCCCC[C@@H]1NC(=O)[C@H](Cc2ccc(-c3ccccc3)cc2)NC(=O)[C@H](C(C)C)NC(=O)[C@H](Cc2c[nH]c3ccccc23)NC(=O)[C@H](CC(=O)O)NC(=O)[C@H](Cc2ccc(OCC(=O)O)cc2)NC(=O)[C@H](Cc2ccc(OCC(=O)O)cc2)NC(=O)CSC[C@@H](C(=O)NCCOCCOCC(=O)NCCCCCCCCCCC(=O)O)NC(=O)[C@H](CCCCN)NC(=O)[C@H](C(C)C)NC(=O)[C@H](CC2CCCCC2)NC(=O)[C@H](CCN)NC(=O)[C@@H](CC(C)C)NC(=O)[C@H](C)N(C)C1=O [Example 2224] ({CH2CO}-Y(Carboxymethyl)Y(Carboxymethyl)DWV[Bip]K(Ac)[NMeA][dL][Dab][Cha]VKC[AEEA][Aun]-OH; thioether N-14)
6.80 | Cc1cccc(C[C@@H]2NC(=O)[C@H](CC(=O)O)NC(=O)[C@H](Cc3ccc(OCC(=O)O)cc3)NC(=O)[C@H](Cc3ccncc3)NC(=O)CSC[C@@H](C(=O)N[C@@H](CCN)C(=O)NCCOCCOCC(=O)NCCCCCCCCCCC(=O)O)NC(=O)[C@H](CCC(=O)O)NC(=O)[C@H](C(C)(C)O)NC(=O)[C@H](CC3CCCCC3)NC(=O)[C@H](CCN)NC(=O)[C@@H](CC(C)C)NC(=O)[C@H](C)N(C)C(=O)[C@H](Cc3ccc(OCC(=O)O)cc3)NC(=O)[C@H](Cc3ccc(-c4ccccc4)cc3)NC(=O)[C@H](Cc3ccc(OCC(=O)O)cc3)NC2=O)c1 [Example 1425] ({CH2CO}-[4Pal]Y(Carboxymethyl)D[Phe(3-Me)]Y(Carboxymethyl)[Bip]Y(Carboxymethyl)[NMeA][dL][Dab][Cha][Val(3-OH)]EC[Dab][AEEA][Aun]-OH; thioether N-14)
7.54 | CC(C)C[C@@H]1NC(=O)[C@H](Cc2c[nH]c3ccccc23)NC(=O)[C@H](CC(=O)O)NC(=O)[C@H](Cc2ccc(OCC(=O)O)cc2)NC(=O)[C@H](Cc2ccccc2)NC(=O)CSC[C@@H](C(=O)N[C@H](CN)C(=O)NCCOCCOCC(=O)NCCCCCCCCCCC(=O)O)NC(=O)[C@H](Cc2c[nH]cn2)NC(=O)[C@H](C(C)C)NC(=O)[C@H](CC(C)C)NC(=O)[C@H](CCN)NC(=O)[C@@H](CC(C)C)NC(=O)[C@H](C)N(C)C(=O)[C@H](C(C)C)NC(=O)[C@H](Cc2ccc(-c3ccccc3)cc2)NC1=O [Example 2037] ({CH2CO}-FY(Carboxymethyl)DWL[Bip]V[NMeA][dL][Dab]LVHC[dDap][AEEA][Aun]-OH; thioether N-14)
7.52 | CC(C)C[C@@H]1NC(=O)[C@H](Cc2c[nH]c3ccccc23)NC(=O)[C@H](CC(=O)O)NC(=O)[C@H](Cc2ccc(C(=O)O)cc2)NC(=O)[C@H](Cc2ccc(OCC(=O)O)cc2)NC(=O)CSC[C@@H](C(=O)N[C@@H](CCCN)C(=O)NCCOCCOCC(=O)NCCCCCCCCCCC(=O)O)NC(=O)[C@H](CCCCN)NC(=O)[C@H](C(C)C)NC(=O)[C@H](CC2CCCCC2)NC(=O)[C@H](CCC(=O)O)NC(=O)[C@@H](CC(C)C)NC(=O)[C@H](C)N(C)C(=O)[C@H](C(C)C)NC(=O)[C@H](Cc2ccc(-c3ccccc3)cc2)NC1=O [Example 2137] ({CH2CO}-Y(Carboxymethyl)[Phe(4-COOH)]DWL[Bip]V[NMeA][dL]E[Cha]VKC[Orn][AEEA][Aun]-OH; thioether N-14)
7.74 | Cc1cccc(C[C@@H]2NC(=O)[C@H](CC(=O)O)NC(=O)[C@H](Cc3ccc(OCC(=O)O)cc3)NC(=O)[C@H](C(C)O)NC(=O)CSC[C@@H](C(=O)N[C@H](CC(N)=O)C(=O)NCCCCCCCCCCC(=O)O)NC(=O)[C@H](C(C)C)NC(=O)[C@H](C(C)C)NC(=O)[C@H](CC3CCCCC3)NC(=O)[C@H](CCN)NC(=O)[C@@H](CC(C)C)NC(=O)[C@H](C)N(C)C(=O)[C@H](Cc3ccc(OCC(=O)O)cc3)NC(=O)[C@H](Cc3ccc(-c4ccccc4)cc3)NC(=O)[C@H](Cc3ccc(OCC(=O)O)cc3)NC2=O)c1 (stereo partly drawn) [Example 2361] ({CH2CO}-[Thr(3ξ)]Y(Carboxymethyl)D[Phe(3-Me)]Y(Carboxymethyl)[Bip]Y(Carboxymethyl)[NMeA][dL][Dab][Cha]VVC[dN][Aun]-OH; thioether N-14)
7.11 | CCC(C)[C@@H]1NC(=O)[C@H](Cc2ccc(-c3ccccc3)cc2)NC(=O)[C@H](C(C)C)NC(=O)[C@H](Cc2c[nH]c3ccccc23)NC(=O)[C@H](CC(=O)O)NC(=O)[C@H](Cc2ccc(OCC(=O)O)cc2)NC(=O)[C@H](Cc2cccnc2)NC(=O)CSC[C@@H](C(=O)N[C@H](CC(N)=O)C(=O)NCCOCCOCC(=O)N[C@@H](CCC(=O)N[C@@H](CCCN)C(=O)NCCCCCCCCCCC(=O)O)C(=O)O)NC(=O)[C@H](CO)NC(=O)[C@H](C(C)C)NC(=O)[C@H](CC(C)C)NC(=O)[C@H](CCN)NC(=O)[C@@H](CC(C)C)NC(=O)[C@H](C)N(C)C1=O (stereo partly drawn) [Example 2060] ({CH2CO}-[3Pal]Y(Carboxymethyl)DWV[Bip][Ile(3ξ)][NMeA][dL][Dab]LVSC[dN][AEEA][γGlu][Orn][Aun]-OH; thioether N-14)
6.10 | Cc1cccc(C[C@@H]2NC(=O)[C@H](CC(=O)O)NC(=O)[C@H](Cc3ccc(OCC(=O)O)cc3)NC(=O)[C@H](C(C)O)NC(=O)CSC[C@@H](C(=O)N(C)CC(=O)NCCOCCOCC(=O)NCCCCCCCCCCC(=O)O)NC(=O)[C@H](CCC(=O)O)NC(=O)[C@H](C(C)C)NC(=O)[C@H](CC3CCCCC3)NC(=O)[C@H](CCN)NC(=O)[C@@H](CC(C)C)NC(=O)[C@H](C)N(C)C(=O)[C@H](Cc3ccc(O)cc3)NC(=O)[C@H](Cc3ccc(-c4ccccc4)cc3)NC(=O)[C@H](C(C)C)NC2=O)c1 (stereo partly drawn) [Example 2270] ({CH2CO}-[Thr(3ξ)]Y(Carboxymethyl)D[Phe(3-Me)]V[Bip]Y[NMeA][dL][Dab][Cha]VEC[Sar][AEEA][Aun]-OH; thioether N-14)
7.71 | CC(C)C[C@H]1NC(=O)[C@H](C)N(C)C(=O)[C@H](Cc2ccc(C(=O)O)cc2)NC(=O)[C@H](Cc2ccc(-c3ccccc3)cc2)NC(=O)[C@H](Cc2ccc(C(=O)O)cc2)NC(=O)[C@H](Cc2cccc(C(F)(F)F)c2)NC(=O)[C@H](CC(=O)O)NC(=O)[C@H](Cc2ccc(OCC(=O)O)cc2)NC(=O)[C@H](CN2CCOCC2)NC(=O)CSC[C@@H](C(=O)N[C@@H](CCN)C(=O)NCCCCCCCCCCCCC(=O)O)NC(=O)[C@H](CCC(=O)O)NC(=O)[C@H](C(C)C)NC(=O)[C@H](CC2CCCCC2)NC(=O)[C@H](CCN)NC1=O [Example 1198] ({CH2CO}-[Ala(morpholin-4-yl)]Y(Carboxymethyl)D[Phe(3-CF3)][Phe(4-COOH)][Bip][Phe(4-COOH)][NMeA][dL][Dab][Cha]VEC[Dab]-{NH(CH2)12COOH}; thioether N-14)
8.08 | CC(C)C[C@@H]1NC(=O)[C@H](Cc2c[nH]c3ccccc23)NC(=O)[C@H](CC(=O)O)NC(=O)[C@H](Cc2ccc(C(=O)O)cc2)NC(=O)[C@H](Cc2ccc(OCC(=O)O)cc2)NC(=O)CSC[C@@H](C(=O)N[C@@H](CCCN)C(=O)NCCOCCOCC(=O)NCCCCCCCCCCC(=O)O)NC(=O)[C@H](CCC(=O)O)NC(=O)[C@H](C(C)C)NC(=O)[C@H](CC2CCCCC2)NC(=O)[C@H](CCN)NC(=O)[C@@H](CC(C)C)NC(=O)[C@H](C)N(C)C(=O)[C@H](C(C)C)NC(=O)[C@H](Cc2ccc(-c3ccccc3)cc2)NC1=O [Example 2126] ({CH2CO}-Y(Carboxymethyl)[Phe(4-COOH)]DWL[Bip]V[NMeA][dL][Dab][Cha]VEC[Orn][AEEA][Aun]-OH; thioether N-14)
7.71 | CC(C)C[C@@H]1NC(=O)[C@H](Cc2c[nH]c3ccccc23)NC(=O)[C@H](CC(=O)O)NC(=O)[C@H](Cc2ccc(C(=O)O)cc2)NC(=O)[C@H](Cc2ccc(OCC(=O)O)cc2)NC(=O)CSC[C@@H](C(=O)N[C@@H](CCC(=O)O)C(=O)NCC(=O)NCCCCCCCCCCC(=O)O)NC(=O)[C@H](CO)NC(=O)[C@H](C(C)C)NC(=O)[C@H](CC2CCCCC2)NC(=O)[C@H](CCN)NC(=O)[C@@H](CC(C)C)NC(=O)[C@H](C)N(C)C(=O)[C@H](C(C)C)NC(=O)[C@H](Cc2ccc(-c3ccccc3)cc2)NC1=O [Example 1035] ({CH2CO}-Y(Carboxymethyl)[Phe(4-COOH)]DWL[Bip]V[NMeA][dL][Dab][Cha]VSCEG[Aun]-OH; thioether N-14)
8.18 | CC(C)C[C@@H]1NC(=O)[C@H](Cc2c[nH]c3ccccc23)NC(=O)[C@H](CC(=O)O)NC(=O)[C@H](Cc2ccc(C(=O)O)cc2)NC(=O)[C@H](Cc2ccc(OCC(=O)O)cc2)NC(=O)CSC[C@@H](C(=O)NCCOCCOCC(=O)N[C@@H](CCN)C(=O)NCCCCCCCCCCC(=O)O)NC(=O)[C@H](CCCCN)NC(=O)[C@H](C(C)C)NC(=O)[C@H](CC2CCCCC2)NC(=O)[C@H](CCN)NC(=O)[C@@H](CC(C)C)NC(=O)[C@H](C)N(C)C(=O)[C@H](C(C)C)NC(=O)[C@H](Cc2ccc(-c3ccccc3)cc2)NC1=O [Example 2155] ({CH2CO}-Y(Carboxymethyl)[Phe(4-COOH)]DWL[Bip]V[NMeA][dL][Dab][Cha]VKC[AEEA][Dab][Aun]-OH; thioether N-14)

Same assay, conditions: PE-labeled PD-L1-Ig 20 nM final, Jurkat-hPD-1 cells; read-out: Jurkat HPD1 PDL1 IC50

pIC50 | SMILES
7.45 | CCC[C@@H]1NC(=O)[C@H](C(C)(C)O)NC(=O)[C@H](CC2CCCCC2)NC(=O)[C@H](Cc2cnc[nH]2)NC(=O)[C@@H](CC(C)C)NC(=O)[C@H](C)N(C)C(=O)[C@H](C(C)CC)NC(=O)[C@H](Cc2ccc(-c3ccccc3)cc2)NC(=O)[C@H](C(C)C)NC(=O)[C@H](Cc2c[nH]c3ccccc23)NC(=O)[C@H](CC(=O)O)NC(=O)[C@H](Cc2ccc(OCC(=O)O)cc2)NC(=O)[C@H](Cc2ccc(OCC(=O)O)cc2)NC(=O)CSC[C@@H](C(=O)N[C@@H](CCN)C(=O)NCCOCCOCC(=O)NCCCCCCCCCCC(=O)O)NC1=O (stereo partly drawn) [Example 2589] ({CH2CO}-Y(Carboxymethyl)Y(Carboxymethyl)DWV[Bip][Ile(3ξ)][NMeA][dL]H[Cha][Val(3-OH)][Nva]C[Dab][AEEA][Aun]-OH; thioether N-14)
